Laboratory results: patent US9409879B2, “Total synthesis of redox-active 1.4-naphthoquinones and their metabolites and their therapeutic use as antimalarial and schistomicidal agents” (CENTRE NATIONAL DE LA RECHERCHE SCIENTIFIQUE, priority 2011, dated 2016)
Counter-ions that a name gives are not always drawn.

Legend:
hematin polymerization = assay: Inhibition of the hematin polymerisation (β-hematin formation), UV-Vis absorbance at 405 nm; assay type: biochemical; settings: for Maximum inhibition (%) / IC50 drug (equiv.)/hematin (equiv.) ratio: inhibition of β-hematin formation; for IC50 drug (equiv.)/hematin (equiv.) ratio: absorbance at 405 nm
Experimental: The antischistosomial effect is measured by the evaluation of the ability of the compounds to inhibit hematin polymerization according to the biochemical assay previously developed by Ncokazi. K. K. Egan. T. J. Anal. Biochem. 2005, 338, 306-319 adapted to the compounds of the present invention. The assays were monitored by UV-Vis absorption spectrophotometry and IC50 values for inhibition of β-hematin formation were determined from the absorbance at 405 nm versus the drug (equiv.)/hematin (equiv.) ratio.

P. falciparum strain 3D7 = assay: Antimalarial assay, chloroquine-sensitive P. falciparum 3D7; assay type: cell-based, Plasmodium falciparum; settings: chloroquine-sensitive strain 3D7
[1] = Complex formation with hematin (apparent association constants); assay type: binding; settings: pH 7.5; 1:1 charge-transfer complexes with hematin
Description: Both 3-benzylnaphtoquinone derivatives form 1:2 or 2:1 complexes with hematin displaying apparent association constants at pH 7.5 of about 10^11-10^13 M^−1. Also the benzoxanthone derivative LJ144K form 1:1 charge-transfer complexes with hematin displaying apparent association constants at pH 7.5 of about 10^5-10^6 M^−1.

P. falciparum strain Dd2 = assay: 3H-hypoxanthine incorporation antiproliferation assay, P. falciparum Dd2; assay type: cell-based, Plasmodium falciparum; settings: multi-resistant P. falciparum strain Dd2
Experimental: Infected erythrocytes in ring stage (0.5% parasitemia, 2.5% hematocrit) in 96-well plates were exposed to the compounds for 48 h and then to radioactive hypoxanthine for 24 h. The amount of radioactivity in precipitable material served as an index of cell proliferation.

| Compound | melting point | other results |
| --- | --- | --- |
| CC1=C(Cc2ccc(C(F)(F)F)cc2)C(=O)c2cc(OS(=O)(=O)C(F)(F)F)ccc2C1=O (as salt: methanesulfonate) [Compound 12.29, 6-methyl-5,8-dioxo-7-(4-(trifluoromethyl)benzyl)-5,8-dihydronaphthalen-2-yl trifluoromethanesulfonate] | 127 °C | – |
| CC1=C(Cc2ccc(C(F)(F)F)cc2)C(=O)c2ccc(OS(=O)(=O)C(F)(F)F)cc2C1=O (as salt: methanesulfonate) [Compound 12.30, 7-methyl-5,8-dioxo-6-(4-(trifluoromethyl)benzyl)-5,8-dihydronaphthalen-2-yl trifluoromethanesulfonate] | 87 to 88 °C | – |
| CC1=C(Cc2ccc(Br)cc2)C(=O)c2cc(F)ccc2C1=O [Compound 12.5, 3-(4-bromobenzyl)-6-fluoro-2-methylnaphthalene-1,4-dione] | 127 to 129 °C | – |
| COc1ccc2c(c1)C(=O)C(C)=C(Cc1ccc(C(F)(F)F)cc1)C2=O [Compound 12.8] | 137 to 139 °C | – |
| COc1cc2c(cc1OC)C(=O)C(Cc1ccc(C(F)(F)F)cc1)=C(C)C2=O [Compound 12.11, 6,7-dimethoxy-2-methyl-3-(4-(trifluoromethyl)benzyl)naphthalene-1,4-dione] | > 200 °C (dec.) | – |
| COc1cc(CC2=C(C)C(=O)c3cc(OC)c(OC)cc3C2=O)cc(OC)c1 [Compound 12.13, 2-(3,5-dimethoxybenzyl)-6,7-dimethoxy-3-methylnaphthalene-1,4-dione] | 168 to 169 °C | – |
| CC1=C(Cc2ccc(Br)cc2)C(=O)c2ccc(F)cc2C1=O [Compound 12.16, 2-(4-bromobenzyl)-6-fluoro-3-methylnaphthalene-1,4-dione] | 107 °C | – |
| CC1=C(Cc2ccc(F)c(C(F)(F)F)c2)C(=O)c2ccc(F)cc2C1=O [Compound 12.18, 6-fluoro-2-(4-fluoro-3-(trifluoromethyl)benzyl)-3-methylnaphthalene-1,4-dione] | 106 to 107 °C | – |
| CC1=C(Cc2ccc(C(F)(F)F)cc2)C(=O)c2c(C)cccc2C1=O [Compound 12.19, 2,5-dimethyl-3-(4-(trifluoromethyl)benzyl)naphthalene-1,4-dione] | 87 to 88 °C | – |
| CC1=C(Cc2ccc(Br)cc2)C(=O)c2c(C)cccc2C1=O [Compound 12.20, 3-(4-bromobenzyl)-2,5-dimethylnaphthalene-1,4-dione] | 149 to 150 °C | – |
| CC1=C(Cc2ccc(Br)cc2)C(=O)c2ccc(C)cc2C1=O [Compound 12.24, 2,7-dimethyl-3-(4-bromobenzyl)naphthalene-1,4-dione] | 122 to 123 °C | – |
| CC1=C(Cc2ccc(C(F)(F)F)cc2)C(=O)c2cccc(C)c2C1=O [Compound 12.25, 2,8-dimethyl-3-(4-(trifluoromethyl)benzyl)naphthalene-1,4-dione] | 98 to 99 °C | – |
| Cc1c(O)c2ccccc2c2oc3cc(C(F)(F)F)ccc3c(=O)c12 [LJ144K, 5-hydroxy-6-methyl-10-(trifluoromethyl)-7H-benzo[c]xanthen-7-one] | – | Maximum inhibition (%) (hematin polymerization): 75%; IC50 drug (equiv.)/hematin (equiv.) ratio (hematin polymerization): 2.5 drug (equiv.)/hematin (equiv.) ratio; IC50 values, antimalarial effects (P. falciparum strain 3D7): submicromolar range; apparent association constants with hematin [1]: 10^5-10^6 M^−1 |
| CC1=C(Cc2ccncc2)C(=O)c2ccccc2C1=O [LJ186] | – | inhibition of the β-hematin polymerization (hematin polymerization): very potent inhibitors; Maximum inhibition (%) (hematin polymerization): 80%; IC50 drug (equiv.)/hematin (equiv.) ratio (hematin polymerization): 4.2 drug (equiv.)/hematin (equiv.) ratio; antimalarial activity relative to chloroquine and P_TM29 (P. falciparum strain Dd2): more active than chloroquine or as active as P_TM29 |

Further lines, with some results ahead:

| melting point | Compound | other results |
| --- | --- | --- |
| 135 to 137 °C | COc1ccc2c(c1)C(=O)C(Cc1ccc(Br)cc1)=C(C)C2=O [Compound 12.1, 3-(4-bromobenzyl)-6-methoxy-2-methylnaphthalene-1,4-dione] | – |
| 86 to 87 °C | COc1ccc2c(c1)C(=O)C(Cc1ccc(C(F)(F)F)cc1)=C(C)C2=O [Compound 12.2] | – |
| 149 °C | COc1cc(CC2=C(C)C(=O)c3ccc(OC)cc3C2=O)cc(OC)c1 [Compound 12.4, 3-(3,5-dimethoxybenzyl)-6-methoxy-2-methylnaphthalene-1,4-dione] | – |
| 149 to 151 °C | COc1ccc2c(c1)C(=O)C(C)=C(Cc1ccc(Br)cc1)C2=O [Compound 12.7, 3-(4-bromobenzyl)-7-methoxy-2-methylnaphthalene-1,4-dione] | – |
| 151 to 153 °C | COc1cc(CC2=C(C)C(=O)c3cc(OC)ccc3C2=O)cc(OC)c1 [Compound 12.9, 3-(3,5-dimethoxybenzyl)-7-methoxy-2-methylnaphthalene-1,4-dione] | – |
| > 200 °C (dec.) | COc1cc2c(cc1OC)C(=O)C(Cc1ccc(Br)cc1)=C(C)C2=O [Compound 12.12, 6,7-dimethoxy-2-methyl-3-(4-bromobenzyl)naphthalene-1,4-dione] | – |
| 166 to 167 °C | COc1ccc(OC)c(CC2=C(C)C(=O)c3cc(OC)c(OC)cc3C2=O)c1 [Compound 12.14, 2-14(2,5-dimethoxybenzyl)-6,7-dimethoxy-3-methylnaphthalene-1,4-dione] | – |
| 117 to 118 °C | CC1=C(Cc2ccc(F)c(Cl)c2)C(=O)c2ccc(F)cc2C1=O [Compound 12.17, 2-(3-chloro-4-fluorobenzyl)-6-fluoro-3-methylnaphthalene-1,4-dione] | – |
| 102 °C | CC1=C(Cc2ccc(C(F)(F)F)cc2)C(=O)c2ccc(C)cc2C1=O [Compound 12.23, 2,7-dimethyl-3-(4-(trifluoromethyl)benzyl)naphthalene-1,4-dione] | – |
| 116 to 118 °C | CC1=C(Cc2ccc(Br)cc2)C(=O)c2cccc(C)c2C1=O [Compound 12.26, 2,8-dimethyl-3-(4-bromobenzyl)naphthalene-1,4-dione] | – |
| 143 to 144 °C | CC1=C(Cc2ccc(C(F)(F)F)cc2)C(=O)c2cc(C)c(C)cc2C1=O [Compound 12.27, 2,6,7-trimethyl-3-(4-(trifluoromethyl)benzyl)naphthalene-1,4-dione] | – |
| 129 to 130 °C | CC1=C(Cc2ccc(Br)cc2)C(=O)c2cc(C)c(C)cc2C1=O [Compound 12.28, 2,6,7-trimethyl-3-(4-bromobenzyl)naphthalene-1,4-dione] | – |
